From ChEMBL document CHEMBL1201861, “Genomics of Drug Sensitity in Cancer screening data, Wellcome Trust Sanger Institute”

Legend:
COLO-792 = assay: cells; format: functional, cell-based; details: Homo sapiens
Description: SANGER: Inhibition of human COLO-792 cell growth in a cell viability assay.

Ca9-22 = assay: cells; format: functional, cell-based; details: Homo sapiens;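 further: growth inhibition of Ca9-22 cells, read out with a cell viability assay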
Description: SANGER: Inhibition of human Ca9-22 cell growth in a cell viability assay.

DOK = assay: cells; format: functional, cell-based; details: Homo sapiens;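 further: cell viability assay read-out, values reflect inhibition of cell growth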
Description: SANGER: Inhibition of human DOK cell growth in a cell viability assay.

DoTc2-4510 = assay: cells; format: functional, cell-based; details: Homo sapiens
EB-3 = assay: cells; format: functional, cell-based, Homo sapiens; details: Homo sapiens, EB-3;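 further: human EB-3 cells, growth inhibition read out via a cell viability assay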
Description: SANGER: Inhibition of human EB-3 cell growth in a cell viability assay.

G-401 = assay: cells; format: functional, cell-based; details: Homo sapiens
Description: SANGER: Inhibition of human G-401 cell growth in a cell viability assay.

HCC1395 = assay: cells; format: functional, cell-based; details: Homo sapiens;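 further: growth inhibition of HCC1395 cells, read out by a cell viability assay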
Description: SANGER: Inhibition of human HCC1395 cell growth in a cell viability assay.

HCC1937 = assay: cells; format: functional, cell-based; details: Homo sapiens;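 further: growth inhibition measured with a cell viability read-out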
Description: SANGER: Inhibition of human HCC1937 cell growth in a cell viability assay.

HMV-2 cell line = assay: cells; format: functional, cell-based; details: Homo sapiens;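 further: growth inhibition of HMV-II cells, read out with a cell viability assay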
Description: SANGER: Inhibition of human HMV-II cell growth in a cell viability assay.

HSC-2 = assay: cells; format: functional, cell-based; details: Homo sapiens;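 further: growth inhibition of human HSC-2 cells, read out by a cell viability assay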
Description: SANGER: Inhibition of human HSC-2 cell growth in a cell viability assay.

HSC-3 = assay: cells; format: functional, cell-based; details: Homo sapiens
Description: SANGER: Inhibition of human HSC-3 cell growth in a cell viability assay.

HT-29 = assay: cells; format: functional, cell-based; details: Homo sapiens;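 further: growth inhibition of human HT-29 cells, read out by a cell viability assay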
Description: SANGER: Inhibition of human HT-29 cell growth in a cell viability assay.

IGR-1 = assay: cells; format: functional, cell-based; details: Homo sapiens;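 further: growth inhibition of human IGR-1 cells, read out with a cell viability assay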
Description: SANGER: Inhibition of human IGR-1 cell growth in a cell viability assay.

JEG-3 = assay: cells; format: functional, cell-based; details: Homo sapiens;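 further: growth inhibition of human JEG-3 cells, read out with a cell viability assay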
Description: SANGER: Inhibition of human JEG-3 cell growth in a cell viability assay.

JIYOYE = assay: cells; format: functional, cell-based, Homo sapiens; details: Homo sapiens, JIYOYE
Description: SANGER: Inhibition of human JiyoyeP-2003 cell growth in a cell viability assay.

KYSE-150 cell line = assay: cells; format: functional, cell-based; details: Homo sapiens;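 further: growth inhibition of human KYSE-150 cells, read out with a cell viability assay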
Description: SANGER: Inhibition of human KYSE-150 cell growth in a cell viability assay.

L-540 = assay: cells; format: functional, cell-based, Homo sapiens; details: Homo sapiens, L-540;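 further: growth inhibition of the human L-540 cell line, read out with a viability assay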
Description: SANGER: Inhibition of human L-540 cell growth in a cell viability assay.

MDA-MB-453 = assay: cells; format: functional, cell-based; details: Homo sapiens
Description: SANGER: Inhibition of human MDA-MB-453 cell growth in a cell viability assay.

MFH-ino = assay: cells; format: functional, cell-based, Homo sapiens; details: Homo sapiens, MFH-ino;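 further: growth inhibition of human MFH-ino cells, read out by a cell viability assay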
Description: SANGER: Inhibition of human MFH-ino cell growth in a cell viability assay.

MKN-1 = assay: cells; format: functional, cell-based; details: Homo sapiens;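 further: growth inhibition of human MKN1 cells, read out by a cell viability measurement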
Description: SANGER: Inhibition of human MKN1 cell growth in a cell viability assay.

MeWo = assay: cells; format: functional, cell-based; details: Homo sapiens;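 further: growth inhibition of MeWo cells, determined by a cell viability readout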
Description: SANGER: Inhibition of human Mewo cell growth in a cell viability assay.

NCCIT = assay: SANGER: Inhibition of human NCCIT cell growth in a cell viability assay.; format: functional, cell-based; details: Homo sapiens, NCCIT
NCI-H1651 = assay: cells; format: functional, cell-based; details: Homo sapiens;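 further: Read-out is a cell viability assay, with IC50 expressing inhibition of NCI-H1651 cell growth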
Description: SANGER: Inhibition of human NCI-H1651 cell growth in a cell viability assay.

NCI-H1693 = assay: cells; format: functional, cell-based; details: Homo sapiens;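 further: growth inhibition of the human cell line, read out with a cell viability assay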
Description: SANGER: Inhibition of human NCI-H1693 cell growth in a cell viability assay.

NCI-H1703 = assay: cells; format: functional, cell-based; details: Homo sapiens;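 further: growth inhibition of NCI-H1703 cells, read out via a cell viability assay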
Description: SANGER: Inhibition of human NCI-H1703 cell growth in a cell viability assay.

NCI-H1963 = assay: cells; format: functional, cell-based, Homo sapiens; details: Homo sapiens, NCI-H1963;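 further: cell growth inhibition of the human line, determined with a cell viability assay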
Description: SANGER: Inhibition of human NCI-H1963 cell growth in a cell viability assay.

NCI-H1993 = assay: cells; format: functional, cell-based; details: Homo sapiens;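 further: growth inhibition of the cancer cell line, assessed with a cell viability assay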
Description: SANGER: Inhibition of human NCI-H1993 cell growth in a cell viability assay.

NCI-H2087 = assay: cells; format: functional, cell-based; details: Homo sapiens;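 further: growth inhibition determined with a cell viability readout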
Description: SANGER: Inhibition of human NCI-H2087 cell growth in a cell viability assay.

NCI-H2171 = assay: cells; format: functional, cell-based, Homo sapiens; details: Homo sapiens, NCI-H2171;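 further: growth inhibition of human NCI-H2171 cells, read out by a cell viability assay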
Description: SANGER: Inhibition of human NCI-H2171 cell growth in a cell viability assay.

NCI-H460 = assay: cells; format: functional, cell-based; details: Homo sapiens;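 further: cell viability assay scoring growth inhibition of human NCI-H460 cells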
Description: SANGER: Inhibition of human NCI-H460 cell growth in a cell viability assay.

NCI-H520 = assay: cells; format: functional, cell-based; details: Homo sapiens;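 further: growth inhibition of NCI-H520 cells, measured by a cell viability assay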
Description: SANGER: Inhibition of human NCI-H520 cell growth in a cell viability assay.

NCI-H522 = assay: cells; format: functional, cell-based; details: Homo sapiens;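 further: cell viability assay measuring growth inhibition of human NCI-H522 cells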
Description: SANGER: Inhibition of human NCI-H522 cell growth in a cell viability assay.

NCI-H64 = assay: cells; format: functional, cell-based, Homo sapiens; details: Homo sapiens, NCI-H64;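 further: growth inhibition of NCI-H64 cells, read out with a cell viability assay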
Description: SANGER: Inhibition of human NCI-H64 cell growth in a cell viability assay.

NCI-H661 = assay: cells; format: functional, cell-based; details: Homo sapiens;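 further: cell viability assay read-out, IC50 being the concentration that inhibits growth of the cells by half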
Description: SANGER: Inhibition of human NCI-H661 cell growth in a cell viability assay.

NCI-H719 = assay: cells; format: functional, cell-based, Homo sapiens; details: Homo sapiens, NCI-H719;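 further: growth inhibition of the cultured cell line, read out with a viability assay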
Description: SANGER: Inhibition of human NCI-H719 cell growth in a cell viability assay.

NY = assay: cells; format: functional, cell-based; details: Homo sapiens
Description: SANGER: Inhibition of human NY cell growth in a cell viability assay.

OPM-2 = assay: cells; format: functional, cell-based, Homo sapiens; details: Homo sapiens, OPM-2;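 further: growth of OPM-2 cells measured with a viability assay, IC50 for suppression of proliferation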
Description: SANGER: Inhibition of human OPM-2 cell growth in a cell viability assay.

RCM-1 = assay: cells; format: functional, cell-based; details: Homo sapiens;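 further: growth inhibition of the RCM-1 line, determined with a cell viability readout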
Description: SANGER: Inhibition of human RCM-1 cell growth in a cell viability assay.

REH = assay: cells; format: functional, cell-based, Homo sapiens; details: Homo sapiens, REH;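 further: growth inhibition of REH cells determined with a cell viability read-out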
Description: SANGER: Inhibition of human REH cell growth in a cell viability assay.

SK-MEL3 = assay: cells; format: functional, cell-based, SK-MEL-3; details: Homo sapiens;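 further: growth inhibition of human SK-MEL-3 cells, read out with a cell viability assay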
Description: SANGER: Inhibition of human SK-MEL-3 cell growth in a cell viability assay.

SK-MM-2 = assay: cells; format: functional, cell-based, Homo sapiens; details: Homo sapiens, SK-MM-2;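 further: growth inhibition of human SK-MM-2 cells, read out with a cell viability assay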
Description: SANGER: Inhibition of human SK-MM-2 cell growth in a cell viability assay.

SK-N-AS = assay: cells; format: functional, cell-based; details: Homo sapiens;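 further: growth inhibition of human SK-N-AS cells, measured with a cell viability assay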
Description: SANGER: Inhibition of human SK-N-AS cell growth in a cell viability assay.

SW1417 = assay: cells; format: functional, cell-based; details: Homo sapiens;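 further: growth inhibition of human SW1417 cells, read out with a cell viability assay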
Description: SANGER: Inhibition of human SW1417 cell growth in a cell viability assay.

SW1710 = assay: cells; format: functional, cell-based; details: Homo sapiens;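 further: growth inhibition of SW1710 cells, determined with a cell viability assay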
Description: SANGER: Inhibition of human SW1710 cell growth in a cell viability assay.

SW1990 = assay: cells; format: functional, cell-based; details: Homo sapiens
Description: SANGER: Inhibition of human SW1990 cell growth in a cell viability assay.

SW-620 = assay: cells; format: functional, cell-based; details: Homo sapiens;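 further: growth inhibition of human SW-620 cells, measured by a cell viability assay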
Description: SANGER: Inhibition of human SW620 cell growth in a cell viability assay.

T98G = assay: cells; format: functional, cell-based; details: Homo sapiens;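 further: growth inhibition of T98G cells, read out by a cell viability assay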
Description: SANGER: Inhibition of human T98G cell growth in a cell viability assay.

647-V = assay: cells; format: functional, cell-based; details: Homo sapiens;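 further: growth inhibition of 647-V cells, read out with a cell viability assay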
Description: SANGER: Inhibition of human 647-V cell growth in a cell viability assay.

8505C = assay: cells; format: functional, cell-based; details: Homo sapiens
Description: SANGER: Inhibition of human 8505C cell growth in a cell viability assay.

A-427 = assay: cells; format: functional, cell-based; details: Homo sapiens;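 further: growth inhibition of human A-427 cells, read out by a cell viability assay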
Description: SANGER: Inhibition of human A427 cell growth in a cell viability assay.

AGS = assay: cells; format: functional, cell-based; details: Homo sapiens;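 further: growth inhibition of AGS cells, determined with a cell viability assay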
Description: SANGER: Inhibition of human AGS cell growth in a cell viability assay.

AN3-CA = assay: cells; format: functional, cell-based; details: Homo sapiens;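 further: growth inhibition of human AN3-CA cells measured by a cell viability assay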
Description: SANGER: Inhibition of human AN3-CA cell growth in a cell viability assay.

CA46 = assay: cells; format: functional, cell-based, Homo sapiens; details: Homo sapiens, CA46;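 further: growth inhibition of human CA46 cells, read out by a cell viability assay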
Description: SANGER: Inhibition of human CA46 cell growth in a cell viability assay.

U-118-MG = assay: cells; format: functional, cell-based; details: Homo sapiens
Description: SANGER: Inhibition of human U-118-MG cell growth in a cell viability assay.

WM-115 = assay: cells; format: functional, cell-based; details: Homo sapiens
Description: SANGER: Inhibition of human WM-115 cell growth in a cell viability assay.

WSU-NHL = assay: cells; format: functional, cell-based, Homo sapiens; details: Homo sapiens, WSU-NHL;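 further: growth inhibition of human WSU-NHL cells, read out with a cell viability assay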
Description: SANGER: Inhibition of human WSU-NHL cell growth in a cell viability assay.

CHP-126 = assay: cells; format: functional, cell-based, Homo sapiens; details: Homo sapiens, CHP-126
Description: SANGER: Inhibition of human CHP-126 cell growth in a cell viability assay.

COLO-678 = assay: cells; format: functional, cell-based; details: Homo sapiens
Description: SANGER: Inhibition of human COLO-678 cell growth in a cell viability assay.

COLO-679 = assay: cells; format: functional, cell-based; details: Homo sapiens
Description: SANGER: Inhibition of human COLO-679 cell growth in a cell viability assay.

COLO-680N = assay: cells; format: functional, cell-based; details: Homo sapiens;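 further: cell viability assay used to measure inhibition of COLO-680N cell growth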
Description: SANGER: Inhibition of human COLO-680N cell growth in a cell viability assay.

`COc1ccc(-c2cc3nccn3c(Nc3ncccc3C(N)=O)n2)cc1OC` showed an IC50 (COLO-792) greater than 8 µM, an IC50 (Ca9-22) greater than 8 µM and an IC50 (DOK) greater than 8 µM. It also gave an IC50 (DoTc2-4510) of 1.06 µM, an IC50 (EB-3) greater than 8 µM and an IC50 (G-401) of 5.75 µM. It also gave an IC50 (HCC1395) greater than 8 µM, an IC50 (HCC1937) greater than 8 µM and an IC50 (HMV-2 cell line) of 0.664 µM. For the same molecule, the IC50 (HSC-2) was 4.53 µM, the IC50 (HSC-3) was greater than 8 µM and the IC50 (HT-29) was 2.81 µM. For the same molecule, the IC50 (IGR-1) was 6.54 µM, the IC50 (JEG-3) was greater than 8 µM and the IC50 (JIYOYE) was 1.55 µM. It also gave an IC50 (KYSE-150 cell line) of 6.05 µM, an IC50 (L-540) greater than 8 µM and an IC50 (MDA-MB-453) greater than 8 µM. It also gave an IC50 (MFH-ino) greater than 8 µM, an IC50 (MKN-1) of 7.3 µM and an IC50 (MeWo) greater than 8 µM. For the same molecule, the IC50 (NCCIT) was 2.36 µM, the IC50 (NCI-H1651) was 4.15 µM and the IC50 (NCI-H1693) was greater than 8 µM. The IC50 (NCI-H1703) was greater than 8 µM, the IC50 (NCI-H1963) was greater than 8 µM and the IC50 (NCI-H1993) was greater than 8 µM. For the same molecule, the IC50 (NCI-H2087) was 2.79 µM, the IC50 (NCI-H2171) was greater than 8 µM and the IC50 (NCI-H460) was 2.46 µM. For the same molecule, the IC50 (NCI-H520) was greater than 8 µM, the IC50 (NCI-H522) was greater than 8 µM and the IC50 (NCI-H64) was 2.16 µM. It also gave an IC50 (NCI-H661) greater than 8 µM, an IC50 (NCI-H719) greater than 8 µM and an IC50 (NY) greater than 8 µM. For the same molecule, the IC50 (OPM-2) was 6.16 µM, the IC50 (RCM-1) was greater than 8 µM and the IC50 (REH) was 2.25 µM. It also gave an IC50 (SK-MEL3) of 5.06 µM, an IC50 (SK-MM-2) greater than 8 µM and an IC50 (SK-N-AS) greater than 8 µM. For the same molecule, the IC50 (SW1417) was greater than 8 µM, the IC50 (SW1710) was 1.66 µM and the IC50 (SW1990) was greater than 8 µM. It also gave an IC50 (SW-620) of 3.31 µM, an IC50 (T98G) greater than 8 µM and an IC50 (647-V) of 7.3 µM. It also gave an IC50 (8505C) of 1.77 µM, an IC50 (A-427) of 4.6 µM and an IC50 (AGS) greater than 8 µM. It also gave an IC50 (AN3-CA) of 4.66 µM, an IC50 (CA46) of 1.08 µM and an IC50 (U-118-MG) of 6.78 µM. It also gave an IC50 (WM-115) greater than 8 µM, an IC50 (WSU-NHL) of 1.38 µM and an IC50 (CHP-126) of 6.5 µM. It also gave an IC50 (COLO-678) greater than 8 µM, an IC50 (COLO-679) greater than 8 µM and an IC50 (COLO-680N) greater than 8 µM.

`CCCCCCCCCCCC1=C(O)C(=O)C=C(O)C1=O` [EMBELIN] gave an IC50 (COLO-792) greater than 32 µM, an IC50 (Ca9-22) of 12.4 µM and an IC50 (DOK) of 11.8 µM. The IC50 (DoTc2-4510) was 14.2 µM, the IC50 (EB-3) was 20.8 µM and the IC50 (G-401) was 8.32 µM. It also gave an IC50 (HCC1395) greater than 32 µM, an IC50 (HCC1937) of 8.63 µM and an IC50 (HMV-2 cell line) of 4.61 µM. The IC50 (HSC-2) was 7.4 µM, the IC50 (HSC-3) was 23.9 µM and the IC50 (HT-29) was 7.52 µM. The IC50 (IGR-1) was 5.38 µM, the IC50 (JEG-3) was 16.8 µM and the IC50 (JIYOYE) was 6.94 µM. The IC50 (KYSE-150 cell line) was 12.1 µM, the IC50 (L-540) was 8.42 µM and the IC50 (MDA-MB-453) was greater than 32 µM. For the same molecule, the IC50 (MFH-ino) was 5.58 µM, the IC50 (MKN-1) was 12.3 µM and the IC50 (MeWo) was 15.9 µM. The IC50 (NCCIT) was 19.2 µM, the IC50 (NCI-H1651) was 5.98 µM and the IC50 (NCI-H1693) was greater than 32 µM. For the same molecule, the IC50 (NCI-H1703) was 19.1 µM, the IC50 (NCI-H1963) was greater than 32 µM and the IC50 (NCI-H1993) was greater than 32 µM. For the same molecule, the IC50 (NCI-H2087) was 5.45 µM, the IC50 (NCI-H2171) was greater than 32 µM and the IC50 (NCI-H460) was 6.09 µM. It also gave an IC50 (NCI-H520) of 13.2 µM, an IC50 (NCI-H522) of 17.7 µM and an IC50 (NCI-H64) greater than 32 µM. For the same molecule, the IC50 (NCI-H661) was 19.2 µM, the IC50 (NCI-H719) was greater than 32 µM and the IC50 (NY) was 4.8 µM. It also gave an IC50 (OPM-2) greater than 32 µM, an IC50 (RCM-1) of 22.4 µM and an IC50 (REH) of 8.62 µM. The IC50 (SK-MEL3) was 16.2 µM, the IC50 (SK-MM-2) was greater than 32 µM and the IC50 (SK-N-AS) was 13.8 µM. The IC50 (SW1417) was greater than 32 µM, the IC50 (SW1710) was 14.1 µM and the IC50 (SW1990) was 6.49 µM. For the same molecule, the IC50 (SW-620) was 28.8 µM, the IC50 (T98G) was 19.6 µM and the IC50 (647-V) was 24.5 µM. The IC50 (8505C) was 14.1 µM, the IC50 (A-427) was greater than 32 µM and the IC50 (AGS) was 8.63 µM. The IC50 (AN3-CA) was 6.25 µM, the IC50 (CA46) was 18.7 µM and the IC50 (U-118-MG) was 29.1 µM. For the same molecule, the IC50 (WM-115) was 13.8 µM, the IC50 (WSU-NHL) was 13.6 µM and the IC50 (CHP-126) was greater than 32 µM. It also gave an IC50 (COLO-678) greater than 32 µM, an IC50 (COLO-679) of 4.2 µM and an IC50 (COLO-680N) of 19.4 µM.
